Tested on: R223X stop codon in the mutated luciferase gene, ADXC8 luciferase reporter cell line
Assay: cells
Type: cell-based
Conditions: ADXC8 cells, 24 hours; for EC (100% of 200 uM G418 response) / Emax: 24 h; for EC (100% of 200 uM G418 response): read-out: pC100%, negative logarithm of the concentration giving the same response as 200 μM G418; for Emax: read-out: Fold Over Control, maximum fold response relative to 200 μM G418; for pC100%: negative logarithm of the concentration giving the same response as 200 μM G418
Method: The read-through activity of compounds was assessed using the ADXC8 luciferase reporter cell line (generated as described in McElroy et al. PLoS Biology (2013), 11, e1001593). […] The amount of luciferase is measured by adding a lysis buffer containing luciferin substrate and detecting luminescence using the following protocol:
ADXC8 cells in assay media (DMEM+10% FBS) were seeded into 96-well tissue culture treated white plates (Greiner) to a density of 13,000 cells per well and incubated for 24 hours at 37° C. in an atmosphere of 5% CO2. […] Plates were incubated for a further 24 hours at 37° C. in an atmosphere of 5% CO2. Cells treated with 200 μM G418 (with 1% DMSO) were used as a positive control.
Cell viability and firefly luciferase activity were measured in the same assay wells. CellTiter-Fluor™ reagent was prepared as per manufacturer's instructions (Promega E7120) and 20 μl of 5× CellTiter-Fluor™ reagent was added to all wells, briefly mixed by orbital shaking (300-500 rpm for −30 seconds) and the plates incubated for 30-45 minutes at 37° C. in an atmosphere of 5% C02. Cell viability was measured by monitoring fluorescence on a CLARIOstar® plate reader (BMG Labtech). Cells containing 1% DMSO were used as a positive control and cells with 400 μM Doxorubicin were used as negative control to define 100 and 0% respectively. ONE-Glo™ luciferase assay buffer (Promega E7120) was prepared according to manufacturer's instructions and 100 μl of luciferase reagent was added to each well and the plate incubated at RT for 3 mins before measuring the luminescence on the CLARIOstar® plate reader (BMG Labtech). Cells treated with 200 μM G418 (with 1% DMSO) were used as a positive control and arbitrarily assigned a value of 100%. Cells treated with 1% DMSO were used as the negative control to define 0% response.
Concentration effect curves were analysed using non-linear regression using the CDD Vault from Collaborative Drug Discovery (Burlingame, CA). […] The bottom and top of the curves were constrained to 0 and the maximum measured response respectively. From the fitted curves, the software derived C100% values (the concentration giving the same response as 200 μM G418) for each compound. The negative logarithm of C100% is reported as pC100% (Table 1). In addition to pC100% values, the maximum fold response relative to 200 μM G418 (Fold over Control) was also captured (Table 1). A pC100% categorisation of ‘-’ in Table 1 represents examples in which a pC100% response was not reached when assayed at a concentration of 100 μM. A pC100% categorisation of ‘*’ in Table 1 represents examples in which a pC100% response was not reached when assayed at a concentration of 30 μM.

SMILES: CNc1cc(N[C@@H]2CCNC2)nc2nc(C)cc(C)c12 [Example 256, (R)—N^4,5,7-trimethyl-N^2-(pyrrolidin-3-yl)-1,8-naphthyridine-2,4-diamine]
- EC (100% of 200 uM G418 response): 0.1 to 1 µM

SMILES: CNc1cc(N[C@H]2CN(C)C[C@H]2OC)nc2nc3c(c(C)c12)CCC3 [Example 424]
- Emax: 100 to 3000%
- EC (100% of 200 uM G418 response): 0.1 to 1 µM

SMILES: CN1CCC(Nc2nc(N)c3ccc(-c4ccccc4Cl)nc3n2)CC1 [Example 115, 7-(2-chlorophenyl)-N^2-(1-methylpiperidin-4-yl) pyrido[2,3-d]pyrimidine-2,4-diamine]
- Emax: 100 to 3000%
- EC (100% of 200 uM G418 response): 1 to 10 µM

SMILES: CN1CCC(Nc2nc(N)c3ccc(-c4ccc(C(=O)N(C)C)cc4)nc3n2)CC1 [Example 71]
- Emax: 0 to 100%
- EC (100% of 200 uM G418 response): > 100 µM

SMILES: CNc1c(C)c(NC2CCN(C)CC2)nc2nc(C)cc(C)c12 [Example 257, N^4,3,5,7-tetramethyl-N^2-(1-methylpiperidin-4-yl)-1,8-naphthyridine-2,4-diamine]
- Emax: 0 to 100%
- EC (100% of 200 uM G418 response): > 31.6 µM

SMILES: Cc1cc(C)c2c(N)nc(NC3CCN(Cc4ccccc4)CC3)nc2n1 [Example 158]
- Emax: 100 to 3000%
- EC (100% of 200 uM G418 response): 0.1 to 1 µM

SMILES: Cc1cc(C)c2c(NC3CCC3)nc(N[C@@H]3CCNC3)nc2n1 [Example 333]
- Emax: 0 to 100%
- EC (100% of 200 uM G418 response): > 31.6 µM

SMILES: Cc1cc(C)c2c(N)nc(NCCCN3CCCCC3)nc2n1 [Example 7, 5,7-dimethyl-N^2-(3-(piperidin-1-yl)propyl)pyrido[2,3-d]pyrimidine-2,4-diamine]
- Emax: 100 to 3000%
- EC (100% of 200 uM G418 response): 1 to 10 µM

SMILES: Cc1cc(C)c2c(N)nc(NCCN3CCNC3=O)nc2n1 [Example 160]
- Emax: 0 to 100%
- EC (100% of 200 uM G418 response): > 100 µM

SMILES: CN1CCC(Nc2nc(N)c3ccc(-c4cccc(F)c4)nc3n2)CC1 [Example 62]
- Emax: 100 to 3000%
- EC (100% of 200 uM G418 response): 1 to 10 µM

SMILES: CN1CCC(Nc2nc(N)c3ccc(-c4ccc(C(=O)O)cc4)nc3n2)CC1 [Example 84]
- Emax: 0 to 100%
- EC (100% of 200 uM G418 response): > 100 µM

SMILES: Cc1cc(C)c2c(N)nc(NC3CCN(Cc4ccc(C#N)c(F)c4)CC3)nc2n1 [Example 570]
- Emax: 100 to 3000%
- EC (100% of 200 uM G418 response): 0.1 to 1 µM

SMILES: Cc1cc(C)c2c(N)nc(N[C@@H]3CCN(Cc4ccc(C#N)cc4)C[C@H]3O)nc2n1 [Example 558]
- Emax: 100 to 3000%
- EC (100% of 200 uM G418 response): 1 to 10 µM

SMILES: [2H]C([2H])([2H])Nc1nc(NC2CCN(C([2H])([2H])[2H])CC2)nc2nc(C)cc(C)c12 [Example 512, 5,7-dimethyl-N^4-(methyl-da)-N^2-(1-(methyl-da)piperidin-4-yl)pyrido[2,3-d]pyrimidine-2,4-diamine]
- EC (100% of 200 uM G418 response): 0.1 to 1 µM

SMILES: CNc1nc(NC2C3CNC2C3)nc2nc(C)cc(C)c12 (single isomer, unassigned) [Example 447]
- Fold Over Control (maximum fold response relative to 200 μM G418): ## (Fold over Ctrl > 1 ≤ 30)
- pC100%: ++ (pC100% > 5.0 ≤ 6.0)

SMILES: Cc1nc2nc(NC3CCN(Cc4ccncc4O)CC3)nc(N)c2c2c1CCC2 [Example 530]
- Emax: 100 to 3000%
- EC (100% of 200 uM G418 response): 0.1 to 1 µM

SMILES: CNc1nc(NC2CN3CCC2C3)nc2nc(C)cc(C)c12 (centres unmarked) [Example 449]
- Emax: 0 to 100%
- EC (100% of 200 uM G418 response): > 31.6 µM

SMILES: Cc1c2c(nc3nc(NC4CCN(Cc5cccc(S(N)(=O)=O)c5)CC4)nc(N)c13)CCC2 [Example 665]
- Emax: 100 to 3000%
- EC (100% of 200 uM G418 response): 1 to 10 µM

SMILES: CNCCCNc1nc(N)c2c(C)cc(C)nc2n1 [Example 280]
- EC (100% of 200 uM G418 response): 1 to 10 µM

SMILES: CNc1nc(NC2C[C@@H]3CCC2N3)nc2nc(C)cc(C)c12 (some centres unmarked) [Example 383]
- EC (100% of 200 uM G418 response): 1 to 10 µM

SMILES: Cc1cc(C)c2c(N)nc(NCCN3Cc4ccccc4C3)nc2n1 [Example 37, N^2-(2-(isoindolin-2-yl)ethyl)-5,7-dimethylpyrido[2,3-d]pyrimidine-2,4-diamine]
- EC (100% of 200 uM G418 response): 10 to 100 µM

SMILES: Cc1cc(C)c2c(N)nc(NCCCN3CC(F)(F)C3)nc2n1 [Example 195]
- Emax: 0 to 100%
- EC (100% of 200 uM G418 response): > 31.6 µM

SMILES: CNc1nc(N[C@H]2CN(C)CC[C@H]2O)nc2nc(C)cc(C)c12 [Example 607]
- EC (100% of 200 uM G418 response): 1 to 10 µM

SMILES: COCc1ccc(CN2CCC(Nc3nc(N)c4c(C)cc(C)nc4n3)CC2)cc1 [Example 488]
- Emax: 100 to 3000%
- EC (100% of 200 uM G418 response): 1 to 10 µM

SMILES: Cc1cc(C)c2c(N)nc(NC3CCN(Cc4ccncc4O)CC3)nc2n1 [Example 564]
- Emax: 100 to 3000%
- EC (100% of 200 uM G418 response): 1 to 10 µM

SMILES: CNc1nc(NC2CCN(Cc3ccccc3O)CC2)nc2nc(C)c3c(c12)CCC3 [Example 544]
- Emax: 100 to 3000%
- EC (100% of 200 uM G418 response): 0.1 to 1 µM

SMILES: Cc1cc(C)c2c(N)nc(NC3CCN(Cc4c(C)cccc4C)CC3)nc2n1 [Example 468]
- Emax: 100 to 3000%
- EC (100% of 200 uM G418 response): 1 to 10 µM

SMILES: Cc1cc(C)c2c(N)nc(NCCCN3CCC3)nc2n1 [Example 191]
- Emax: 100 to 3000%
- EC (100% of 200 uM G418 response): 10 to 100 µM

SMILES: CNc1nc(NC2CC3CCC2N3)nc2nc(C)cc(C)c12 (centres unmarked) [Example 517, N^2-(-7-azabicyclo[2.2.1]heptan-2-yl)-N^4,5,7-trimethylpyrido[2,3-d]pyrimidine-2,4-diamine]
- Emax: 100 to 3000%
- pC100%: ++ (pC100% > 5.0 ≤ 6.0)

SMILES: Cc1nc2nc(NC3CCN(Cc4cc(F)cc(F)c4O)CC3)nc(N)c2c2c1CCC2 [Example 536]
- Emax: 100 to 3000%
- EC (100% of 200 uM G418 response): 1 to 10 µM

SMILES: CNc1nc(N[C@H]2CCCN(C)CC2)nc2nc(C)cc(C)c12 [Example 386]
- Emax: 100 to 3000%
- EC (100% of 200 uM G418 response): 1 to 10 µM

SMILES: CN1CCC(Nc2nc(N)c3cc(C(=O)O)cnc3n2)CC1 [Example 287]
- Emax: 0 to 100%
- EC (100% of 200 uM G418 response): > 100 µM

SMILES: Cc1ccnc2nc(NC3CCN(C)CC3)nc(N)c12 [Example 2, 5-methyl-N^2-(1-methylpiperidin-4-yl)pyrido[2,3-d]pyrimidine-2,4-diamine]
- Emax: 100 to 3000%
- EC (100% of 200 uM G418 response): 10 to 100 µM

SMILES: Cc1cc(C)c2c(N)nc(N[C@H]3CCN(C)C3)nc2n1 [Example 15, (S)-5,7-dimethyl-N^2-(1-methylpyrrolidin-3-yl)pyrido[2,3-d]pyrimidine-2,4-diamine]
- Emax: 100 to 3000%
- EC (100% of 200 uM G418 response): 1 to 10 µM

SMILES: Cc1c(Cl)c(-c2ccccc2)nc2nc(NCCCN3CCOCC3)nc(N)c12 [Example 128, 6-chloro-5-methyl-N2-(3-morpholinopropyl)-7-phenylpyrido[2,3-d]pyrimidine-2,4-diamine]
- EC (100% of 200 uM G418 response): 1 to 10 µM

SMILES: Cc1cc(C)c2c(N)nc(N[C@@H]3CCCCNC3)nc2n1 [Example 313]
- Emax: 100 to 3000%
- EC (100% of 200 uM G418 response): 1 to 10 µM

SMILES: Cc1cc(C)c2c(N)nc(NCC3CCN(C(=O)OC(C)(C)C)CC3)nc2n1 [Example 133]
- Emax: 0 to 100%
- EC (100% of 200 uM G418 response): > 100 µM

SMILES: CN1CCC(Nc2nc(N)c3cccnc3n2)CC1 [Example 1, N^2-(1-methylpiperidin-4-yl)pyrido[2,3-d]pyrimidine-2,4-diamine]
- Emax: 100 to 3000%
- EC (100% of 200 uM G418 response): 10 to 100 µM

SMILES: Cc1nc2nc(NC3CCN(C)CC3)nc(N)c2c(-c2ccccc2)c1Cl [Example 271]
- Emax: 0 to 100%
- EC (100% of 200 uM G418 response): > 31.6 µM

SMILES: Cc1cc(C)c2c(N)nc(NCCCN(C)C)nc2n1 [Example 154]
- EC (100% of 200 uM G418 response): 1 to 10 µM

SMILES: Cc1cc(C)c2c(N)nc(N[C@@H]3CN4CCC3CC4)nc2n1 [Example 398]
- Emax: 0 to 100%
- EC (100% of 200 uM G418 response): > 31.6 µM
